Marks after values point to notes of the source that are not given here. Square brackets hold non-standard residues; d marks the D form. Ends that are not written are not given here. Hyp = O=C(O)[C@@H]1C[C@@H](O)CN1
Tests used:
Format in all cases: cell-based, human
[1] = test system: transglutaminase 1 (TGM1); assay: TGM1 expression promotion test (real time PCR); settings: 0.5 mM, 48 hours, NHEK (NB), control 1.00, GAPDH corrected
Protocol: (§1) A normal human epidermal keratinocyte NHEK (NB) (available from KURABO INDUSTRIES LTD.) was used. The cells were precultured in HuMedia-KG2 (available from KURABO INDUSTRIES LTD.), and 1.5×10^4 cells/mL×5 mL (7.5×10^4 cells/dish) were cultured in a 60 mm laboratory dish for two days. After confirming that the cells were subconfluent, the medium was replaced by 5 mL of HuMedia-KB2 (available from KURABO INDUSTRIES LTD.). Samples were added in respective concentrations, and allowed to react for 24 hours (ET-1, K10), 48 hours (TGM1, ivl, HAS2), and 72 hours (FLG). Total RNA was extracted from the cells, reverse transcribed, and subjected to real time PCR. In the real time PCR, as target genes, endoserine-1 (ET-1; Hs00174961_m1), keratin 10 (K10; Hs01043114_g1), transglutaminase 1 (TGM1; Hs01070310_m1), involucrin (ivl; Hs00846307_s1), filaggrin (FLG; Hs00856927_g1) and hyaluronic acid synthase 2 (HAS2; Hs00193435_m1) were measured. GAPDH was used as a correction gene. Calculation was conducted by using a calibration curve method, and FAM pigment of TaqMan Gene Expression was used in primers and probes.
(§2) For each peptide or the like of Examples 1 to 13 and Comparative Examples 1 to 27, RNA expression amounts of endoserine-1 (ET-1), keratin 10 (K10), transglutaminase 1 (TGM1), involucrin (ivl), filaggrin (FLG) and hyaluronic acid synthase 2 (HAS2) were measured. Values in the tables are each average value±standard deviation, and *, ** and *** denote that they are significant with P<0.05, P<0.01, and P<0.001, respectively with respect to the control in Paired-t-test.

endoserine-1 (ET-1) = assay: ET-1 expression suppression test (real time PCR); settings: 0.5 mM, 24 hours, NHEK (NB), control 1.00, GAPDH corrected
Protocol: as §1, §2

keratin 10 (K10) = assay: K10 expression promotion test (real time PCR); settings: 0.5 mM, 24 hours, NHEK (NB), control 1.00, GAPDH corrected
Protocol: as §1, §2

[2] = test system: hyaluronic acid synthase 2 (HAS2); assay: HAS2 expression promotion test (real time PCR); settings: 0.5 mM, 48 hours, NHEK (NB), control 1.00, GAPDH corrected
Protocol: as §1, §2

filaggrin (FLG) = assay: FLG expression promotion test (real time PCR); settings: 0.5 mM, 72 hours, NHEK (NB), control 1.00, GAPDH corrected
Protocol: as §1, §2

involucrin (ivl) = assay: ivl expression promotion test (real time PCR); settings: 0.5 mM, 48 hours, NHEK (NB), control 1.00, GAPDH corrected
Protocol: as §1, §2

| Compound | Transglutaminase 1 RNA expression amount [1] | Endoserine-I RNA expression amount (endoserine-1 (ET-1)) | Keratin 10 RNA expression amount (keratin 10 (K10)) | Hyaluronic acid synthase 2 RNA expression amount [2] | Filaggrin RNA expression amount (filaggrin (FLG)) | Involucrin RNA expression amount (involucrin (ivl)) |
| --- | --- | --- | --- | --- | --- | --- |
| Pro-Ala [Comparative Example 6] | 0.94 ± 0.13 | 1.09 ± 0.01** | 0.70 ± 0.04 | 0.99 ± 0.68 | 0.63 ± 0.08** | 0.81 ± 0.06** |
| Ser-[Hyp]-Gly [Example 10] | 1.21 ± 0.01 | 0.89 ± 0.07* | 1.77 ± 0.04** | 2.14 ± 0.89* | 2.29 ± 0.26** | 1.59 ± 0.05* |
| O=C(O)[C@@H]1CCCN1 [Comparative Example 7, L-proline] | 1.02 ± 0.13 | 1.89 ± 0.06** | 0.73 ± 0.03** | 0.84 ± 0.47 | 0.85 ± 0.18 | 0.78 ± 0.01** |
| Phe-Hyp [Example 11] | 1.46 ± 0.02* | 0.97 ± 0.16 | 2.22 ± 0.01*** | 1.63 ± 0.49* | 1.95 ± 0.19* | 1.85 ± 0.00*** |
| (Pro-Hyp-Gly)5 [Example 1] | 13.50 ± 2.69** | 0.32 ± 0.00* | 6.40 ± 0.06 | 3.45 ± 1.02** | 11.23 ± 1.56*** | 7.96 ± 0.60** |
| N[C@@H](CCC(=O)O)C(=O)O [Comparative Example 11, L-glutamic acid] | 0.40 ± 0.01** | 1.00 ± 0.02** | 0.65 ± 0.01** | 1.06 ± 0.24 | 0.77 ± 0.04* | 0.85 ± 0.11 |
| CC(C)C[C@H](N)C(=O)O [Comparative Example 10, L-leucine] | 0.63 ± 0.07* | 1.58 ± 0.05** | 0.62 ± 0.01** | 0.76 ± 0.07* | 0.89 ± 0.08 | 0.84 ± 0.03 |
| C[C@H](N)C(=O)O [Comparative Example 12, L-alanine] | 0.95 ± 0.04 | 1.58 ± 0.05** | 0.82 ± 0.02* | 0.89 ± 0.57 | 0.69 ± 0.02** | 0.64 ± 0.15** |
| O=C(O)[C@@H]1C[C@@H](O)CN1 [Comparative Example 8, L-hydroxyproline] | 0.94 ± 0.10 | 1.52 ± 0.02*** | 0.64 ± 0.02** | 0.70 ± 0.29 | 0.89 ± 0.09 | 0.94 ± 0.04 |
| N[C@@H](CO)C(=O)O [Comparative Example 13, L-serine] | 0.85 ± 0.02 | 1.64 ± 0.07** | 0.69 ± 0.03** | 0.81 ± 0.50 | 0.85 ± 0.08 | 0.98 ± 0.05 |

Further lines, with some results ahead:

| Transglutaminase 1 RNA expression amount [1] | Compound | Endoserine-I RNA expression amount (endoserine-1 (ET-1)) | Keratin 10 RNA expression amount (keratin 10 (K10)) | Hyaluronic acid synthase 2 RNA expression amount [2] | Filaggrin RNA expression amount (filaggrin (FLG)) | Involucrin RNA expression amount (involucrin (ivl)) |
| --- | --- | --- | --- | --- | --- | --- |
| 7.21 ± 0.03** | (Pro-Hyp-Gly)2 [Example 2] | 0.43 ± 0.03*** | 5.69 ± 0.28*** | 3.11 ± 0.89** | 9.58 ± 1.02*** | 4.35 ± 0.04*** |
| 0.98 ± 0.05 | Gly-Pro-[Hyp] [Comparative Example 1] | 1.05 ± 0.11 | 0.94 ± 0.10 | 0.98 ± 0.45 | 1.08 ± 0.21 | 0.95 ± 0.08 |
| 0.58 ± 0.01*** | Leu-Hyp [Comparative Example 3] | 1.08 ± 0.00 | 1.04 ± 0.06 | 0.87 ± 0.63 | 0.69 ± 0.58 | 0.89 ± 0.09* |
| 0.48 ± 0.02*** | Ala-Hyp [Comparative Example 2] | 1.23 ± 0.03* | 1.00 ± 0.06 | 0.99 ± 0.66 | 0.98 ± 0.95 | 1.01 ± 0.00 |
| 0.64 ± 0.01*** | Pro-Pro [Comparative Example 5] | 1.65 ± 0.07* | 0.98 ± 0.16 | 0.78 ± 0.64* | 0.66 ± 0.09** | 0.56 ± 0.04* |
| 0.75 ± 0.01** | NCC(=O)O [Comparative Example 9, L-glycine] | 1.01 ± 0.05** | 0.81 ± 0.05 | 0.61 ± 0.40** | 0.87 ± 0.05 | 0.71 ± 0.03** |
| 2.15 ± 0.02** | Gly-Pro [Example 3] | 0.36 ± 0.12** | 2.56 ± 0.22*** | 3.08 ± 0.99** | 7.21 ± 0.95*** | 2.18 ± 0.00*** |
| 1.69 ± 0.01*** | Glu-[Hyp]-Gly [Example 8] | 0.71 ± 0.03 | 2.39 ± 0.02* | 2.56 ± 0.45** | 2.92 ± 0.89** | 1.89 ± 0.03* |
| 5.36 ± 0.01*** | Pro-[Hyp]-Gly [Example 5] | 0.53 ± 0.00 | 3.81 ± 0.17*** | 2.45 ± 0.90** | 5.32 ± 0.69*** | 1.75 ± 0.22* |
| 1.99 ± 0.06* | Hyp-Gly [Example 9] | 0.55 ± 0.09** | 1.99 ± 0.13* | 2.18 ± 0.67** | 2.98 ± 0.58** | 2.04 ± 0.02* |
| 2.00 ± 0.02*** | Ala-[Hyp]-Gly [Example 7] | 0.52 ± 0.01 | 5.06 ± 0.37*** | 2.21 ± 0.67** | 3.09 ± 0.23** | 1.36 ± 0.07* |

— patent US20160082087A1, “WHITENING PROMOTING AGENT OR ATOPIC DERMATITIS AMELIORATING AGENT” (NITTA GELATIN INC., priority 2013, published 2016)
